Holding throughout (experiment): DTP human tumour cell line panel, 48 h
The subject of assay [1] is NCI-H226 lung.
Assay [2] relates to M14 melanoma.
The subject of assay [3] is OVCAR-8 ovarian.
Assay [4] concerns DU-145 prostate.
The test system of assay [5] is HCT-116 colon.
The subject of assay [6] is RXF 393 renal.

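Five compound concentrations were applied to cells in 96-well plates for 48 hours; endpoints were derived by simple linear interpolation of the resulting dose-response curve. The concentration for full growth arrest is given as TGI.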 Bounds are passed on as bounds.

In the case of `C=CCN(c1cc(O)c2c(c(C)cn2S(=O)(=O)c2ccccc2)c1[N+](=O)[O-])S(C)(=O)=O`, the total growth inhibition concentration (TGI) in assay [1], in assay [2], in assay [3], in assay [4], in assay [5] and in assay [6] was greater than 100 µM in each case.

In the case of `S=c1[nH]nc(Cn2c3ccc(Br)cc3c3nc4ccccc4nc32)o1`, the TGI was greater than 100 µM in assay [1]; greater than 100 µM in assay [2]; greater than 100 µM in assay [3]; greater than 100 µM in assay [4]; greater than 100 µM in assay [5]; greater than 60 µM in assay [6].

Regarding `Cc1ccc2c(c1C)CC1(Cc3ccc(C)c(C)c3C1=O)C2=O` (stereo not given), the TGI in assay [1] is greater than 100 µM; in assay [2] it was greater than 100 µM; in assay [3], greater than 100 µM; in assay [4], greater than 100 µM; in assay [5], greater than 100 µM; in assay [6] it was 54.3 µM.

As to `O=C(OC1OC2COC(=O)c3cc(O)c(O)c(O)c3-c3c(cc(O)c(O)c3O)C(=O)OC3C2OC(=O)[C@@]24CC(=O)[C@@](O)(OC25C(=O)O[C@H]2[C@@H](O)CO[C@@]25O)C2(O)Oc5c(O)c(O)cc(c5C24)C(=O)OC13)c1cc(O)c(O)c(O)c1` (stereo not given in full), the total growth inhibition concentration (TGI) in assay [1], in assay [2], in assay [3], in assay [4], in assay [5] and in assay [6] was greater than 100 µM throughout.

Consider `COc1cc(S(=O)(=O)Nc2nc(-c3ccc(N=Cc4ccccc4O)cc3)cs2)ccc1Cl`, for which the concentration for total growth inhibition (TGI) in assay [1], in assay [2], in assay [3], in assay [4], in assay [5] and in assay [6] was greater than 100 µM throughout.

For the compound `COC(=O)C1(CCCCl)CCCN1C(=O)OC(C)(C)C` (stereo not given), the TGI in assay [1], in assay [4], in assay [5] and in assay [6] was greater than 100 µM each time.

On to `CCOc1ccc(NC(=O)C(=O)C(/C(=N/N)C(=O)OC)c2nc3ccc([N+](=O)[O-])cc3[nH]c2=O)cc1` (stereo not given), for which the concentration for total growth inhibition (TGI) in assay [1], in assay [2], in assay [3], in assay [4], in assay [5] and in assay [6] was greater than 100 µM throughout.

Regarding `O[C@@H]1[C@H](OC2c3ccccc3-c3ccccc32)[C@H](OCc2ccccc2)[C@@H]2OC[C@H]1O2`, the TGI in assay [1], in assay [2], in assay [3], in assay [4], in assay [5] and in assay [6] was greater than 100 µM each time.

On to `C#CCN(C(=O)C(F)(F)F)C(/C=C\C(=O)OC)(C(=O)OCC)C(=O)OCC`, for which the TGI in assay [1], in assay [2], in assay [3], in assay [4] and in assay [6] was greater than 100 µM each time.

On to `COC(=O)/C(=N\N)C(C(=O)C(=O)Nc1cc(Cl)ccc1Cl)c1nc2ccc([N+](=O)[O-])cc2[nH]c1=O` (stereo not given), for which the concentration for total growth inhibition (TGI) in assay [1], in assay [2], in assay [3], in assay [5] and in assay [6] was greater than 100 µM each time.

`O=C(Nc1ccc(Cl)cc1Cl)C1C(=O)OC2(CCCCC2)OC1=O`: the concentration for total growth inhibition (TGI) in assay [1] was 29.3 µM; in assay [2], 30.1 µM; in assay [3], 39.6 µM; in assay [4], 28.7 µM; in assay [5] it was 23.3 µM; in assay [6], 22 µM.

As for `CCCCCCCCCCCCCCCCOP(=O)([O-])OCC[N+](C)(C)C1CC(C)(C)N(O)C(C)(C)C1`, the TGI in assay [1], in assay [2], in assay [3], in assay [4], in assay [5] and in assay [6] was greater than 100 µM in each case.

As for `COC(=O)[C@@H]1Cc2ccc(OC)c(c2)OCCC(=O)N1`, the concentration for total growth inhibition (TGI) in assay [1], in assay [2], in assay [3], in assay [4], in assay [5] and in assay [6] was greater than 100 µM throughout.

With `O=C(O)CCC(NC(=O)c1ccc(Nc2nc3ccc(C(F)(F)F)cc3nc2C(=O)O)cc1)C(=O)O` (stereo not given), the concentration for total growth inhibition (TGI) in assay [1], in assay [2], in assay [3], in assay [4], in assay [5] and in assay [6] was greater than 100 µM in each case.

Take `CCCN1C(=O)CN(S(=O)(=O)c2ccc(Cl)cc2)C1=O`: the concentration for total growth inhibition (TGI) in assay [1], in assay [2], in assay [4], in assay [5] and in assay [6] was greater than 100 µM in each case.

As for `Cc1cn([C@H]2C[C@@H](N3C(=O)c4ccccc4C3=O)[C@@H](CO[Si](C)(C)C(C)(C)C)O2)c(=O)[nH]c1=O`, the TGI was greater than 100 µM in assay [1]; greater than 100 µM in assay [2]; greater than 100 µM in assay [3]; greater than 100 µM in assay [4]; greater than 100 µM in assay [5]; 52 µM in assay [6].

As for `CC1(c2ccc(Cl)cc2)C=C(c2ccc(Cl)cc2)C(C#N)=C(C(C#N)C#N)N1` (stereo not given), the TGI in assay [1] was 98.2 µM; in assay [2] it was 36 µM; in assay [3], 30.7 µM; in assay [4], 29.6 µM; in assay [5], 27.3 µM; in assay [6], 38.2 µM.

Turning to `NC(CCC(=O)O)C(=O)NC(Cc1ccc(N(CCCl)CCCl)cc1)C(=O)O` (stereo not given), the concentration for total growth inhibition (TGI) in assay [1], in assay [2], in assay [3], in assay [4], in assay [5] and in assay [6] was greater than 100 µM in each case.

`Cc1csc(=Nc2ccccc2)n1CCC(O)(P(=O)(O)O)P(=O)(O)O`: the TGI in assay [1], in assay [2], in assay [3], in assay [4], in assay [5] and in assay [6] was greater than 100 µM throughout.

With `CN(CC(=O)Nc1ccccc1C(=O)O)c1ccccc1`, the TGI in assay [1], in assay [2], in assay [3], in assay [4], in assay [5] and in assay [6] was greater than 100 µM throughout.

Consider `N#CCc1nc(-c2cc3ccccc3oc2=O)cs1`, for which the concentration for total growth inhibition (TGI) in assay [1], in assay [2], in assay [3], in assay [4], in assay [5] and in assay [6] was greater than 100 µM each time.

In the case of `CC(=O)Oc1ccc(-c2nnc(-c3ccc(OC(C)=O)cc3)nn2)cc1`, the concentration for total growth inhibition (TGI) in assay [1], in assay [2], in assay [3], in assay [4], in assay [5] and in assay [6] was greater than 100 µM each time.

For `Cc1cc2nnn(C3CCCCO3)c2cc1C` (stereo not given), the TGI in assay [1], in assay [2], in assay [3], in assay [4], in assay [5] and in assay [6] was greater than 100 µM throughout.

As for `COC(=O)c1sc(=S)sc1SCc1cccc(CSc2sc(=S)sc2C(=O)OC)c1`, the TGI in assay [2] is greater than 100 µM; in assay [3], greater than 100 µM; in assay [4] it was greater than 100 µM; in assay [5], greater than 100 µM; in assay [6], 34.3 µM.

As for `O=C1C(Cl)=CC2(C=C1Cl)CCN=c1c(O)c3c(c(O)c12)=NC=N3`, the concentration for total growth inhibition (TGI) was greater than 100 µM in assay [1]; greater than 100 µM in assay [2]; greater than 100 µM in assay [3]; greater than 100 µM in assay [4]; 67.5 µM in assay [5]; 70.7 µM in assay [6].

Regarding `COc1ccc(OC/C(N)=N/NC(=O)c2ccncc2)cc1`, the TGI in assay [2], in assay [3], in assay [4], in assay [5] and in assay [6] was greater than 100 µM in each case.

In the case of `O=C(c1c(F)c(F)c(F)c(F)c1F)n1c(=S)n(C(=O)c2c(F)c(F)c(F)c(F)c2F)c2ccccc21`, the TGI in assay [2], in assay [3], in assay [4] and in assay [5] was greater than 100 µM throughout.

In the case of `O=C(/C=C/c1ccccc1)CCN1CCCCC1`, the total growth inhibition concentration (TGI) in assay [1] was greater than 100 µM; in assay [2], 32.4 µM; in assay [3] it was 38.4 µM; in assay [4], greater than 100 µM; in assay [5], 32.1 µM; in assay [6], 75 µM.

On to `O=C(O)c1ccccc1/C=C1\Cc2cc3c(cc2C1=O)CCC3`, for which the TGI in assay [1] is 80.8 µM; in assay [2] it was 53.7 µM; in assay [3], greater than 100 µM; in assay [4], greater than 100 µM; in assay [5], 76.6 µM; in assay [6], 56.5 µM.

Consider `CCCCCCC1OC23OC1CCC2C(O)CCC3O` (stereo not given), for which the concentration for total growth inhibition (TGI) in assay [1], in assay [3], in assay [4], in assay [5] and in assay [6] was greater than 100 µM throughout.

Take `N/C(CCSCCSCC/C(N)=N\O)=N\O`: the TGI in assay [1], in assay [2], in assay [4], in assay [5] and in assay [6] was greater than 100 µM throughout.

For the compound `Cc1cnc2[nH]c(-c3cccc4ccccc34)cc(=O)c2c1`, the concentration for total growth inhibition (TGI) in assay [1] was 59.9 µM; in assay [2], greater than 100 µM; in assay [3], 0.108 µM; in assay [4] it was greater than 100 µM; in assay [5] it was greater than 100 µM; in assay [6] it was 0.0923 µM.

Regarding `Cc1nc2ccccc2n1Cc1nnc(-c2ccccc2)o1`, the total growth inhibition concentration (TGI) in assay [2], in assay [3], in assay [4], in assay [5] and in assay [6] was greater than 100 µM each time.

For the compound `N#CCC(=O)N/N=C\C(O)C(O)C(O)C(O)CO` (stereo not given), the TGI in assay [1], in assay [2], in assay [3], in assay [4] and in assay [6] was greater than 100 µM throughout.

`O=C(NC1CCCCC1)c1n[nH]nc1Cl`: the TGI in assay [2], in assay [3], in assay [4], in assay [5] and in assay [6] was greater than 100 µM each time.

Turning to `Cc1[nH]c(=O)c2oc3cc4ccccc4cc3c2c1C(=O)O`, the TGI in assay [1], in assay [2], in assay [3], in assay [4] and in assay [6] was greater than 10 µM each time.

As for `Clc1ccc(C(OCn2ccnc2)c2nc3ccccc3[nH]2)c(Cl)c1` (stereo not given), the total growth inhibition concentration (TGI) in assay [2], in assay [3], in assay [4] and in assay [5] was greater than 100 µM in each case.

`O=C1/C(=C/c2ccc(Br)s2)NC(=S)N1CN1CCCCC1`: the TGI in assay [1] was greater than 100 µM; in assay [3], greater than 100 µM; in assay [4], greater than 100 µM; in assay [5] it was greater than 100 µM; in assay [6], 60.7 µM.

With `Cc1nn(C(=O)Cc2ccccc2)c2c1C(c1ccc(/C=C/c3ccccc3)cc1)SC(N)=N2` (stereo not given), the total growth inhibition concentration (TGI) in assay [1], in assay [2], in assay [3], in assay [4] and in assay [5] was greater than 100 µM each time.

Turning to `Nc1nccc(NCC2(CO)CC(CCc3ccccc3)C2)n1` (stereo not given), the concentration for total growth inhibition (TGI) in assay [1] is 51.7 µM; in assay [3] it was 69.4 µM; in assay [4], 30.6 µM; in assay [5] it was 23 µM; in assay [6] it was 36 µM.

Consider `COC(=O)C(=O)C(C(=O)C(=O)Nc1cccc(OC)c1)c1nc2ccc(Cl)cc2[nH]c1=O` (stereo not given), for which the total growth inhibition concentration (TGI) in assay [1], in assay [2], in assay [3], in assay [4] and in assay [5] was greater than 100 µM each time.

`COc1ccc(/C=C2\C[C@H]3[C@@H]4CC=C5C[C@@H](O)CC[C@]5(C)[C@H]4CC[C@]3(C)\C2=N\O)cc1`: the TGI in assay [1] was 94.1 µM; in assay [2], 40.3 µM; in assay [4], 71.5 µM; in assay [5] it was 29.3 µM; in assay [6], greater than 100 µM.

These data come from PubChem BioAssay (NCI).
